In ChEMBL document CHEMBL3120061, “Novel spiroketal pyrrolidine GSK2336805 potently inhibits key hepatitis C virus genotype 1b mutants: from lead to clinical compound” (J Med Chem, 2014):

Columns and labels:
Hepatitis C virus [1] = assay: Antiviral activity against Hepatitis C virus genotype 1b in Huh-luc/neo-ET replicon cells after 48 hrs by replicon-based luciferase assay; format: functional, organism-based, Hepacivirus hominis
Hepatitis C virus [2] = assay: Antiviral activity against Hepatitis C virus genotype 1a in Huh-luc/neo-ET replicon cells after 48 hrs by replicon-based luciferase assay; format: functional, organism-based, Hepacivirus hominis; conditions: subtype 1a
Hepatitis C virus [3] = assay: Ratio of EC50 for Hepatitis C virus genotype 1b harboring NS5A L31V mutant gene to EC50 for Hepatitis C virus genotype 1b harboring wild type NS5A in Huh-luc/neo-ET replicon cells by replicon-based luciferase assay; format: functional, Hepacivirus hominis
Hepatitis C virus [4] = assay: Ratio of EC50 for Hepatitis C virus genotype 1b harboring NS5A Y93H mutant gene to EC50 for Hepatitis C virus genotype 1b harboring wild type NS5A in Huh-luc/neo-ET replicon cells by replicon-based luciferase assay; format: functional, Hepacivirus hominis
Hepatitis C virus [5] = assay: Antiviral activity against Hepatitis C virus genotype 1b harboring NS5A L28V mutant gene in Huh-luc/neo-ET replicon cells after 48 hrs by transient replicon mutant-based luciferase assay; format: functional, organism-based, Hepacivirus hominis
Hepatitis C virus [6] = assay: Antiviral activity against Hepatitis C virus genotype 1b harboring NS5A L31V mutant gene in Huh-luc/neo-ET replicon cells after 48 hrs by transient replicon mutant-based luciferase assay; format: functional, organism-based, Hepacivirus hominis
Hepatitis C virus [7] = assay: Antiviral activity against Hepatitis C virus genotype 1b harboring NS5A Y93H mutant gene in Huh-luc/neo-ET replicon cells after 48 hrs by transient replicon mutant-based luciferase assay; format: functional, organism-based, Hepacivirus hominis

SMILES | EC50 (Hepatitis C virus [1]) | EC50 (Hepatitis C virus [2]) | other results
COC(=O)N[C@H](C(=O)N1CCC[C@H]1c1ncc(-c2ccc(-c3ccc(-c4cnc([C@@H]5COC6(CCOCC6)N5C(=O)OCc5ccccc5)[nH]4)cc3)cc2)[nH]1)C(C)C | 0.002 nM | 1.58 nM | –
COC(=O)N[C@H](C(=O)N1CCC[C@H]1c1ncc(-c2ccc(-c3ccc(-c4cnc(C5CCC6(CCOCC6)N5C(=O)[C@@H](NC(=O)OC)C(C)C)[nH]4)cc3)cc2)[nH]1)C(C)C (stereo partly specified) | 0.0631 nM | 1.58 nM | –
COC(=O)N[C@@H](CC(C)C)C(=O)N1C(c2ncc(-c3ccc(-c4ccc(-c5cnc([C@@H]6CCCN6C(=O)[C@@H](NC(=O)OC)C(C)C)[nH]5)cc4)cc3)[nH]2)CCC12CCC(F)(F)CC2 (stereo partly specified) | 0.0126 nM | 2 nM | –
COC(=O)N[C@H](C(=O)N1CC2(CC1c1ncc(-c3ccc(-c4ccc(-c5cnc([C@@H]6CCCN6C(=O)[C@@H](NC(=O)OC)C(C)C)[nH]5)cc4)cc3)[nH]1)CC(F)(F)C2)C(C)C (mixture of isomers) | 0.00398 nM | 0.1 nM | –
COC(=O)N[C@H](C(=O)N1CC2(CCOCC2)CC1c1ncc(-c2ccc(-c3ccc(-c4cnc([C@@H]5CCCN5C(=O)[C@@H](NC(=O)OC)C(C)C)[nH]4)cc3)cc2)[nH]1)C(C)C (mixture of isomers) | 0.0158 nM | 0.0631 nM | –
COC(=O)N[C@H](C(=O)N1CCC[C@H]1c1ncc(-c2ccc(-c3ccc(-c4cnc([C@@H]5CC6(CN5C(=O)[C@@H](NC(=O)OC)C(C)C)OCC(C)(C)CO6)[nH]4)cc3)cc2)[nH]1)C(C)C | 0.00251 nM | 0.794 nM | –
CN(C)[C@@H](C(=O)N1CCC[C@H]1c1ncc(-c2ccc(-c3ccc(-c4cnc([C@@H]5COC6(CCOCC6)N5C(=O)OCc5ccccc5)[nH]4)cc3)cc2)[nH]1)c1ccccc1 | 0.00631 nM | 1.58 nM | –
COC(=O)NCC(=O)N1CC2(C[C@H]1c1ncc(-c3ccc(-c4ccc(-c5cnc([C@@H]6CCCN6C(=O)[C@@H](NC(=O)OC)C(C)C)[nH]5)cc4)cc3)[nH]1)SCCS2 | 0.00501 nM | 0.631 nM | –
COC(=O)N[C@H](C(=O)N1CCC[C@H]1c1ncc(-c2ccc(-c3ccc(-c4cnc([C@@H]5CC6(CN5C(=O)[C@@H](NC(=O)OC)C(C)C)SCCS6)[nH]4)cc3)cc2)[nH]1)C(C)C | 0.00398 nM | 0.0794 nM | –
COC(=O)N[C@H](C(=O)N1CCC[C@H]1c1ncc(-c2ccc(-c3ccc(-c4cnc(C5CCC6(CCC(F)(F)CC6)N5C(C)=O)[nH]4)cc3)cc2)[nH]1)C(C)C (stereo partly specified) | 0.1 nM | 25.1 nM | –
CC(=O)N1CCC[C@H]1c1ncc(-c2ccc(-c3ccc(-c4cnc([C@@H]5CCCN5C(C)=O)[nH]4)cc3)cc2)[nH]1 | 126 nM | 794 nM | –
COC(=O)N[C@H](C(=O)N1CCC[C@H]1c1ncc(-c2ccc(-c3ccc(-c4cnc([C@@H]5CC6(CN5C(=O)[C@@H](NC(=O)OC)C(C)C)O[C@@H](C)C[C@H](C)O6)[nH]4)cc3)cc2)[nH]1)C(C)C (stereo partly specified) | 0.0126 nM | 2 nM | –
COC(=O)N[C@H](C(=O)N1CC2(CCN(C(=O)OC)CC2)CC1c1ncc(-c2ccc(-c3ccc(-c4cnc([C@@H]5CCCN5C(=O)[C@@H](NC(=O)OC)C(C)C)[nH]4)cc3)cc2)[nH]1)C(C)C (mixture of isomers) | 0.0158 nM | 0.794 nM | –
COC(=O)N[C@H](C(=O)N1CC2(CC1c1ncc(-c3ccc(-c4ccc(-c5cnc([C@@H]6CCCN6C(=O)[C@@H](NC(=O)OC)C(C)C)[nH]5)cc4)cc3)[nH]1)CN(S(C)(=O)=O)C2)C(C)C (mixture of isomers) | 0.0501 nM | 1.26 nM | –
COC(=O)N[C@H](C(=O)N1CC2(CCS(=O)(=O)CC2)CC1c1ncc(-c2ccc(-c3ccc(-c4cnc([C@@H]5CCCN5C(=O)[C@@H](NC(=O)OC)C(C)C)[nH]4)cc3)cc2)[nH]1)C(C)C (mixture of isomers) | 0.0398 nM | 0.398 nM | –
COC(=O)N[C@H](C(=O)N1CCC[C@H]1c1ncc(-c2ccc(-c3ccc(-c4cnc(C5CCC6(CCOCC6)N5C(C)=O)[nH]4)cc3)cc2)[nH]1)C(C)C (stereo partly specified) | 0.0126 nM | 0.316 nM | –
COC(=O)N[C@@H](C)C(=O)N1C(c2ncc(-c3ccc(-c4ccc(-c5cnc([C@@H]6CCCN6C(=O)[C@@H](NC(=O)OC)C(C)C)[nH]5)cc4)cc3)[nH]2)CCC12CCC(F)(F)CC2 (stereo partly specified) | 0.01 nM | 0.631 nM | –
COC(=O)N[C@H](C(=O)N1CCC[C@H]1c1ncc(-c2ccc(-c3ccc(-c4cnc(C5CCC6(CCS(=O)(=O)CC6)N5C(=O)[C@@H](NC(=O)OC)C(C)C)[nH]4)cc3)cc2)[nH]1)C(C)C (stereo partly specified) | 0.316 nM | 12.6 nM | –
COC(=O)N[C@H](C(=O)N1CCC[C@H]1c1ncc(-c2ccccc2)[nH]1)C(C)C | 200 nM | 501 nM | –

SMILES | EC50 (Hepatitis C virus [1]) | EC50 (Hepatitis C virus [2]) | other results
O=C(Nc1nc(-c2ccccc2)cs1)[C@@H]1CCCN1C(=O)OCc1ccccc1 | 2510 nM | > 20000 nM | –
COC(=O)N[C@H](C(=O)N1CC2(CC1c1ncc(-c3ccc(-c4ccc(-c5cnc([C@@H]6CCCN6C(=O)[C@@H](NC(=O)OC)C(C)C)[nH]5)cc4)cc3)[nH]1)CN(C(=O)OC(C)(C)C)C2)C(C)C (mixture of isomers) | 0.01 nM | 1 nM | –
O=C(NC1CC1)c1ccc(-c2csc(NC(=O)[C@@H]3CCCN3C(=O)OCc3ccccc3)n2)cc1 | 126 nM | > 20000 nM | –
COC(=O)N[C@H](C(=O)N1CC2(CCN(C(C)=O)CC2)CC1c1ncc(-c2ccc(-c3ccc(-c4cnc([C@@H]5CCCN5C(=O)[C@@H](NC(=O)OC)C(C)C)[nH]4)cc3)cc2)[nH]1)C(C)C (mixture of isomers) | 0.2 nM | 10 nM | –
CNC(=O)N1CC2(CC(c3ncc(-c4ccc(-c5ccc(-c6cnc([C@@H]7CCCN7C(=O)[C@@H](NC(=O)OC)C(C)C)[nH]6)cc5)cc4)[nH]3)N(C(=O)[C@@H](NC(=O)OC)C(C)C)C2)C1 (mixture of isomers) | 0.251 nM | 6.31 nM | –
COC(=O)N[C@H](C(=O)N1CC2(CCNCC2)CC1c1ncc(-c2ccc(-c3ccc(-c4cnc([C@@H]5CCCN5C(=O)[C@@H](NC(=O)OC)C(C)C)[nH]4)cc3)cc2)[nH]1)C(C)C (mixture of isomers) | 1.58 nM | > 31.6 nM | –
COC(=O)N[C@H](C(=O)N1CC2(CC1c1ncc(-c3ccc(-c4ccc(-c5cnc([C@@H]6CCCN6C(=O)[C@@H](NC(=O)OC)C(C)C)[nH]5)cc4)cc3)[nH]1)CN(C(=O)OC)C2)C(C)C (mixture of isomers) | 0.0501 nM | 2 nM | –
COC(=O)N[C@H](C(=O)N1CC2(CC1c1ncc(-c3ccc(-c4ccc(-c5cnc([C@@H]6CCCN6C(=O)[C@@H](NC(=O)OC)C(C)C)[nH]5)cc4)cc3)[nH]1)CN(C(C)=O)C2)C(C)C (mixture of isomers) | 0.158 nM | 1.26 nM | –
COC(=O)N[C@H](C(=O)N1CC2(CCOCC2)C[C@H]1c1ncc(-c2ccc(-c3ccc(-c4cnc([C@@H]5CC6(CCOCC6)CN5C(=O)[C@@H](NC(=O)OC)C(C)C)[nH]4)cc3)cc2)[nH]1)C(C)C | 0.0126 nM | 0.02 nM | Ratio EC50 (Hepatitis C virus [3]): <=5; Ratio EC50 (Hepatitis C virus [4]): >=30; EC50 (Hepatitis C virus [5]): 0.00631 nM; EC50 (Hepatitis C virus [6]): 0.02 nM; EC50 (Hepatitis C virus [7]): 0.126 nM
CC[C@H](NC(=O)OC)C(=O)N1C(c2ncc(-c3ccc(-c4ccc(-c5cnc([C@@H]6CCCN6C(=O)[C@@H](NC(=O)OC)C(C)C)[nH]5)cc4)cc3)[nH]2)CCC12CCC(F)(F)CC2 (stereo partly specified) | 0.0158 nM | 1 nM | –
COC(=O)N[C@H](C(=O)N1CCC[C@H]1c1ncc(-c2ccc(-c3ccc(-c4cnc([C@@H]5CC6(CCC(F)(F)CC6)CN5C(=O)[C@@H](NC(=O)OC)C(C)C)[nH]4)cc3)cc2)[nH]1)C(C)C | 0.00251 nM | 0.0398 nM | Ratio EC50 (Hepatitis C virus [3]): >=25; Ratio EC50 (Hepatitis C virus [4]): >=30; EC50 (Hepatitis C virus [5]): 0.00158 nM; EC50 (Hepatitis C virus [6]): 0.2 nM; EC50 (Hepatitis C virus [7]): 1 nM
COC(=O)N[C@H](C(=O)N1CC2(CCN(C(=O)OC(C)(C)C)CC2)CC1c1ncc(-c2ccc(-c3ccc(-c4cnc([C@@H]5CCCN5C(=O)[C@@H](NC(=O)OC)C(C)C)[nH]4)cc3)cc2)[nH]1)C(C)C (mixture of isomers) | 0.0398 nM | 10 nM | –
COC(=O)N[C@H](C(=O)N1CC2(CNC2)CC1c1ncc(-c2ccc(-c3ccc(-c4cnc([C@@H]5CCCN5C(=O)[C@@H](NC(=O)OC)C(C)C)[nH]4)cc3)cc2)[nH]1)C(C)C (mixture of isomers) | 0.126 nM | 3.16 nM | –
COC(=O)N[C@H](C(=O)N1CCC[C@H]1c1ncc(-c2ccc(-c3ccc(-c4cnc(C5CCC6(CCC(F)(F)CC6)N5C(=O)[C@@H](NC(=O)OC)C(C)C)[nH]4)cc3)cc2)[nH]1)C(C)C (stereo partly specified) | 0.0158 nM | 1.58 nM | –
CC[C@H](NC(=O)OC)C(=O)N1CC2(C[C@H]1c1ncc(-c3ccc(-c4ccc(-c5cnc([C@@H]6CCCN6C(=O)[C@@H](NC(=O)OC)C(C)C)[nH]5)cc4)cc3)[nH]1)SCCS2 | 0.00398 nM | 0.0631 nM | –
O=C(Nc1cccnc1)c1ccc(-c2csc(NC(=O)[C@@H]3COC4(CCOCC4)N3C(=O)OCc3ccccc3)n2)cc1 | 0.251 nM | > 20000 nM | –
COC(=O)N[C@H](C(=O)N1CCC[C@H]1c1ncc(-c2ccc(-c3ccc(-c4cnc(C5CCC6(CCOCC6)N5C(=O)OCc5ccccc5)[nH]4)cc3)cc2)[nH]1)C(C)C (stereo partly specified) | 0.00631 nM | 6.31 nM | –
COC(=O)N[C@@H](C)C(=O)N1CC2(C[C@H]1c1ncc(-c3ccc(-c4ccc(-c5cnc([C@@H]6CCCN6C(=O)[C@@H](NC(=O)OC)C(C)C)[nH]5)cc4)cc3)[nH]1)OCCCO2 | 0.02 nM | 0.0794 nM | –
COC(=O)N[C@H](C(=O)N1CCC[C@H]1c1ncc(-c2ccc(-c3ccc(-c4cnc([C@@H]5CC6(CN5C(=O)[C@@H](NC(=O)OC)C(C)C)OCCCO6)[nH]4)cc3)cc2)[nH]1)C(C)C | 0.00794 nM | 0.0251 nM | –
